This is an account of results in PubChem BioAssay AID504640 (Southern Research Specialized Biocontainment Screening …, 2011).

In test [1] the test system is THP-1 cell viability, cytotoxicity. In words: cytotoxicity in THP-1 cells, cytotoxicity control, cell-based (AID 504640).
Assay in test [2]: as above
The note with it: THP-1 cell viability, cytotoxicity; at 100 µM (top of the series).

The source made the active and inactive calls. No rule for the calls is given here. Where a SMILES comes first, the peptide text is derived from it. The star is where a group is joined. Cbz = O=C(OCc1ccccc1)*

Regarding `Cc1ccc(C(=O)N/N=C(/CC(=O)c2cccs2)C(F)(F)F)cc1`, the 50% cytotoxic concentration (CC50) in test [1] is 40.4 µM.
In the case of `Cc1ccc(NC(=O)C2C3/C=C\CCCCC32)cc1C` (configuration not stated), in test [2], the viability is 86.3% (inactive).
Consider `Cc1ccc2c(c1)c(C1=c3ccccc3=NC1=O)c(O)n2C`, for which, in test [1], the CC50 was 12.6 µM.
The same measure, in the same setting: then `c1ccc(/N=C2\N=C(Nc3ccccn3)c3ccccc32)nc1`, with less than 0.2 µM; and `S=c1nc[nH]c2nc[nH]c12`, with 0.56 µM; and `Cc1cccc(/C=C/C(=O)c2ccc([N+](=O)[O-])o2)c1`, with 6.64 µM.
As to `COC(=O)CCc1nc2c(C#N)c(-c3ccc(Cl)cc3)ccn2n1`, the viability in test [2] was 108% (inactive).
`Cc1cc(Br)ccc1NC(=O)c1cnc(N2CCN(c3ccccn3)CC2)c2ccccc12`: in test [1], the CC50 was 35.6 µM.
On the same count and under the same terms, the same measure for `Cc1ccc2ccc3ccc(C)nc3c2n1`: less than 0.2 µM.
As to `CCOC(=O)COc1ccc(/C=C2\NC(=S)N(CC)C2=O)cc1`, the viability in test [2] is 89.2% (inactive).
Turning to `COC(=O)c1cc(=O)n(-c2ccc(F)cc2)c(=Nc2ccc(F)cc2)s1`, the 50% cytotoxic concentration (CC50) in test [1] was 17.6 µM.
In the case of `CCOC1OC(=O)C(Cl)=C1Nc1ccccc1C` (configuration not stated), the viability in test [2] was 81.1% (inactive).
On the same count and under the same terms, the same measure for `COc1cc(NC(=O)C/C(C)=N/NC(=O)c2ccccn2)c(OC)cc1Cl`: 101% (inactive).
On to `Cc1nn2c(NCc3ccccn3)cc(C(C)C)nc2c1-c1ccccc1`, for which the CC50 in test [1] is 2.88 µM.
On to `COC(=O)C(C)Oc1ccc(-c2nccc(-c3ccccn3)n2)cc1` (configuration not stated), for which the viability in test [2] is 91% (inactive).
As for `O=C(NCC(c1cccs1)N1CCOCC1)c1cc([N+](=O)[O-])cc([N+](=O)[O-])c1` (configuration not stated), the CC50 in test [1] was 58.4 µM.
The same measure, in the same setting: the same measure for `Oc1ccccc1/C=N/Nc1ccnc(SCc2ccccc2)n1`: 44.9 µM; for `O=C(/C=C/c1ccccc1)N1CCN(CCN2C(=O)c3cccc4cccc(c34)C2=O)CC1`: 41.2 µM.
As for `COC(=O)c1ccc(CNc2c(N3CCCC3)c(=O)c2=O)cc1`, the viability in test [2] is 80.7% (inactive).
For `CCC(C)Nc1ccc(NC(C)CC)cc1` (configuration not stated), the CC50 in test [1] was 3.31 µM.
Consider `Cc1nc(SCC(=O)NC2CCCCC2)[nH]c(=O)c1C`, for which the viability in test [2] was 106% (inactive).
Consider `CNc1nc(SCc2ccccc2Cl)nc2c1CCCC2`, for which the half-maximal cytotoxic concentration (CC50) in test [1] was 28 µM.
On the same count and under the same terms, then `COC(=O)C(Nc1nc(SCC(=O)NC2CCCCC2)nc2ccccc12)c1ccccc1` (configuration not stated), with 50.4 µM; and `Cc1cccc(-c2oc3ccc(-c4ccc5c(c4)OCO5)cc3c2C#Cc2cncn2C)c1`, with 35.9 µM.
Same read-out and setting: the same measure for `CC(C)NC(=O)c1sc(=S)n2c1[nH]c(=O)c1ccc(C(=O)NCCc3ccc(Cl)cc3)cc12`: 52.8 µM; for `CCOC(=O)C(C)Sc1ncnc2c1nnn2-c1ccc(F)cc1` (configuration not stated): 38.7 µM.
Still for that read-out and setting: then `CCOC(=O)c1ccc(NC(=O)Cn2ncc(Cl)c(Cl)c2=O)cc1`, with 0.88 µM.
Regarding `CCOC(=O)COn1c2c(c3c4no[n+]([O-])c4ccc31)CCCC2`, the viability in test [2] was 92.6% (inactive).
With `CCOC(=O)CNC(=O)[C@H](Cc1ccccc1)NC(=O)OCc1ccccc1` (Cbz-Phe-Gly-OEt), the CC50 in test [1] was 43.1 µM.
For the compound `COC(=O)C1CC(=O)N(c2ccc(OCc3ccccc3Cl)cc2)C1` (configuration not stated), in test [2], the viability is 86.1% (inactive).
Consider `CC[N+](C)(CC)CCCCOc1ccc2c(c1)C(=O)c1cc(OCCCC[N+](C)(CC)CC)ccc1-2`, for which the CC50 in test [1] was 23.1 µM.
With `O=C(CSc1nc2ccccc2c(=O)[nH]1)NC1CCCCC1`, the viability in test [2] is 92.5% (inactive).

A word on the CC50: it is the concentration that lowers cell viability or growth by half. Broadly, the viability is a read-out of living cells in per cent, often relative to untreated cells.
